The text below walks through data of US8044100B2, “Methods and compositions for treating amyloid-related diseases” (Bellus Health Inc., priority 2004, dated 2011).

Molecules are shown by their SMILES.

This assay deals with Aβ peptides (Aβ40, Aβ42) in the plasma and brain of TgCRND8 mice. As to the kind of experiment: Short term treatment (14 or 28 days) in TgCRND8 mice: Aβ levels in plasma and brain by ELISA.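 For Aβ40 Change Insoluble: symbols grade percent change in Aβ versus untreated control with plus for increase and minus for decrease.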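 For Aβ40 Change Soluble: symbols grade percent change in Aβ versus untreated control with plus for increase and minus for decrease.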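 For Aβ42 Change Insoluble: symbols grade percent change in Aβ versus untreated control with plus for increase and minus for decrease.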 It is filed as in vivo, mouse. Conditions: for Aβ40 Change / Aβ42 Change: plasma. On the procedure:
The short term therapeutic effect of 19 compounds of the invention was studied. These compounds were administered over a 14 or 28 day period at the end of which the levels of Aβ peptides in the plasma and brain of TgCRND8 animals were determined.
Male and female transgenic mice from the 3rd and 4th B6C3F1 generations were used in this example and given daily subcutaneous or oral administrations of one of a series of compounds for 14 or 28 days. The following abbreviations are used to designate these animals from the 3rd and 4th generation backcross in the present protocol: TgCRND8-2.B6C3F1(N3); TgCRND8-2.B6C3F1 (N4).
Baseline animals (Group 1) consisted of naive TgCRND8-2. B6C3F1(N3) at 11±1 weeks of age. These mice were used to determine the Aβ levels in the plasma and brain of naive transgenic animals at the initiation of treatment.
Starting at 11 weeks of age (±1 week) animals received daily administration of their respective treatment for a period of 14 or 28 days (groups 2-21), at a dose of 250 mg/kg at 10 ml/kg or of vehicle only (water; group 2) or 1% methyl cellulose only (group 21). The route of administration was subcutaneous for water-soluble compounds and oral for compounds solubilized in methylcellulose 1%. (MC 1%). At the end of the treatment periods, plasma and perfused brains were collected for quantification of Aβ levels.
At 11±1 weeks of age for the Baseline group, and at the end of the treatment period (14 or 28 days) for Groups 2 to 21, at 24 hours after the last compound administration animals were sacrificed and samples collected. An approximate blood volume of 500 μl was collected from the orbital sinus and kept on ice until centrifugation at 4° C. at a minimum speed of 3,000 rpm for 10 minutes. Plasma samples were immediately frozen and stored at −80° C. pending analysis. The brains were removed, frozen, and stored at −80° C. awaiting analysis.
Brains were weighted frozen and homogenized with 4 volumes of ice cold 50 mM Tris-Cl pH 8.0 buffer with protease inhibitor cocktail (4 mL of buffer for 1 g of wet brain). Samples were spun at 15000 g for 20 minutes and the supernatants were transferred to fresh tubes. One hundred fifty (150) μl from each supernatant were mixed with 250 μl of 8M guanidine-HCL/50 mM Tris-HCL pH 8.0 (ratio of 0.6 vol supernatant:1 vol 8M guanidium/Tris-HCL 50 mM pH8.0) and 400 μL 5 M guanidium/Tris-HCL 50 mM pH8.0 were added. The tubes were vortexed for 30 seconds and frozen at −80° C. In parallel, pellets were treated with 7 volumes of 5 M guanidine-HCL/50 mM Tris-HCL pH 8.0 (7 mL of guanidine for 1 g of wet brain), vortexed for 30 seconds and frozen at −80° C. Samples were thawed at room temperature, sonicated at 80° C. for 15 minutes and frozen again. This cycle was repeated 3 times to ensure homogeneity and samples were returned to −80° C. pending analysis.
Aβ levels were evaluated in plasma and brain samples by ELISA using Human Aβ40 and Aβ42 Fluorometric ELISA kits from Biosource (Cat. No. 89-344 and 89-348) according to manufacturer's recommended procedures. In short, samples were thawed at room temperature, sonicated for 5 minutes at 80° C. (sonication for brain homogenates; no sonication for plasma samples) and kept on ice. Aβ peptides were captured using 100 μl of the diluted samples to the plate and incubated without shaking at 4° C. overnight. The samples were aspirated and the wells were rinsed 4 times with wash buffer obtained from the Biosource ELISA kit. The anti-Aβ40 or anti-Aβ42 rabbit polyclonal antiserum (specific for the Aβ40 or Aβ42 peptide) was added (100 μl) and the plate was incubated at room temperature for 2 hours with shaking. The wells were aspirated and washed 4 times before adding 100 μl of the alkaline phosphatase labeled anti-rabbit antibody and incubating at room temperature for 2 hours with shaking. The plates were then rinsed 5 times and the fluorescent substrate (100 μl) was added to the plate. […]
Background: In an ELISA, binding on a coated surface is turned into a signal by an enzyme label.

Where [1] appears, read: brain homogenate, Day 14, vehicle group, 250 mg/kg daily.
Where [2] appears, read: brain homogenate, Day 28, vehicle group, 250 mg/kg daily.
Where [3] appears, read: Day 14, vehicle (water) group, 250 mg/kg daily subcutaneous.
The mark [4] stands for this setting: Day 28, vehicle (water) group, 250 mg/kg daily subcutaneous.
Where [5] appears, read: brain homogenate, Day 28, vehicle group, 250 mg/kg daily, total, not soluble/insoluble.
Setting [6] is: brain homogenate, Day 14, methylcellulose group, daily oral.
[7] abbreviates: brain homogenate, Day 28, methylcellulose group, daily oral.

As to `CC(C)(CO)NCCCS(=O)(=O)O` [DH], under setting [1], the “Aβ40 Change Insoluble” value is on record as “−− (decreases of 20 to 38%)”, the “Aβ42 Change Insoluble” value is “−−− (decreases of 39% or more)” and the “Aβ42 Change Soluble” value is recorded as “−−− (decreases of 39% or more)”. Under setting [2], the “Aβ40 Change Insoluble” value is given as “− (Decreases in the levels of Aβ of 5 to 19%)” and the “Aβ42 Change Insoluble” value is “− (Decreases in the levels of Aβ of 5 to 19%)”.

On to `O=S(=O)(O)CC(O)CNC1CCCCC1` (centres unmarked) [DC], for which, under setting [1], the “Aβ40 Change Insoluble” value is “−− (decreases of 20 to 38%)”, the “Aβ42 Change Insoluble” value is given as “−− (decreases of 20 to 38%)” and the “Aβ42 Change Soluble” value is listed as “+ (increases in the levels of Aβ (relative to untreated control) of 20 to 39%)”. Also, under setting [2], the “Aβ40 Change Insoluble” value was “+ (increases in the levels of Aβ (relative to untreated control) of 20 to 39%)”, the “Aβ40 Change Soluble” value is recorded as “− (Decreases in the levels of Aβ of 5 to 19%)”, the “Aβ42 Change Insoluble” value is “+++ (increases of 70% or higher)” and the “Aβ42 Change Soluble” value is “++ (increases of 40 to 69%)”. Under setting [3], the “Aβ40 Change” value is recorded as “++ (increases of 40 to 69%)” and the “Aβ42 Change” value is recorded as “++ (increases of 40 to 69%)”. Moreover, the “Aβ40 Change” value under setting [4] is recorded as “++ (increases of 40 to 69%)”.

On to `CCNCCCS(=O)(=O)O` [CV], for which, where the note is “brain homogenate, Day 14, vehicle group, 250 mg/kg daily, total, not soluble/insoluble”, the “Aβ40 Change (total level)” value is “− (Decreases in the levels of Aβ of 5 to 19%)”. Under setting [5], the “Aβ40 Change (total level)” value was “++ (increases of 40 to 69%)” and the “Aβ42 Change (total level)” value was “+++ (increases of 70% or higher)”. Also, under setting [3], the “Aβ40 Change” value is recorded as “+ (increases in the levels of Aβ (relative to untreated control) of 20 to 39%)” and the “Aβ42 Change” value is “++ (increases of 40 to 69%)”. Further, under setting [4], the “Aβ40 Change” value is “++ (increases of 40 to 69%)” and the “Aβ42 Change” value was “++ (increases of 40 to 69%)”.

Turning to `O=S(=O)(O)CCCNC1CC2CCC1C2` (centres unmarked) [BY], under setting [1], the “Aβ40 Change Insoluble” value was “+++ (increases of 70% or higher)”, the “Aβ40 Change Soluble” value is recorded as “+++ (increases of 70% or higher)” and the “Aβ42 Change Soluble” value was “+++ (increases of 70% or higher)”. Under setting [2], the “Aβ40 Change Insoluble” value is recorded as “+++ (increases of 70% or higher)”, the “Aβ40 Change Soluble” value is “+ (increases in the levels of Aβ (relative to untreated control) of 20 to 39%)” and the “Aβ42 Change Insoluble” value is recorded as “+++ (increases of 70% or higher)”. Also, under setting [3], the “Aβ40 Change” value is listed as “+ (increases in the levels of Aβ (relative to untreated control) of 20 to 39%)” and the “Aβ42 Change” value is “+ (increases in the levels of Aβ (relative to untreated control) of 20 to 39%)”.

Consider `C#CC1(NCCCS(=O)(=O)O)CCCCC1` [DX], for which, under setting [1], the “Aβ40 Change Insoluble” value is reported as “−− (decreases of 20 to 38%)” and the “Aβ42 Change Insoluble” value is “− (Decreases in the levels of Aβ of 5 to 19%)”. Besides, under setting [2], the “Aβ40 Change Insoluble” value is given as “−− (decreases of 20 to 38%)”, the “Aβ42 Change Insoluble” value is “−− (decreases of 20 to 38%)” and the “Aβ42 Change Soluble” value was “− (Decreases in the levels of Aβ of 5 to 19%)”.

For `CC(C)(NCCCS(=O)(=O)O)c1ccccc1` [DM], under setting [1], the “Aβ40 Change Insoluble” value was “+ (increases in the levels of Aβ (relative to untreated control) of 20 to 39%)”, the “Aβ42 Change Insoluble” value is given as “− (Decreases in the levels of Aβ of 5 to 19%)” and the “Aβ42 Change Soluble” value is “− (Decreases in the levels of Aβ of 5 to 19%)”. Under setting [2], the “Aβ40 Change Insoluble” value was “−− (decreases of 20 to 38%)”, the “Aβ40 Change Soluble” value was “− (Decreases in the levels of Aβ of 5 to 19%)”, the “Aβ42 Change Insoluble” value is listed as “−− (decreases of 20 to 38%)” and the “Aβ42 Change Soluble” value was “−− (decreases of 20 to 38%)”.

Consider `COC[C@H](NCCCS(=O)(=O)O)[C@@H](O)c1ccccc1` [EG], for which, under setting [1], the “Aβ40 Change Insoluble” value is reported as “−− (decreases of 20 to 38%)”, the “Aβ40 Change Soluble” value is given as “− (Decreases in the levels of Aβ of 5 to 19%)”, the “Aβ42 Change Insoluble” value is “−− (decreases of 20 to 38%)” and the “Aβ42 Change Soluble” value is “−− (decreases of 20 to 38%)”. For the same molecule, under setting [2], the “Aβ40 Change Insoluble” value is “−− (decreases of 20 to 38%)” and the “Aβ42 Change Insoluble” value is on record as “−− (decreases of 20 to 38%)”.

Consider `CC12CC3CC(C)(C1)CC(NCCCS(=O)(=O)O)(C3)C2` [CY], for which, under setting [6], the “Aβ40 Change Soluble” value was “− (Decreases in the levels of Aβ of 5 to 19%)”, the “Aβ42 Change Insoluble” value was “++ (increases of 40 to 69%)” and the “Aβ42 Change Soluble” value is on record as “+++ (increases of 70% or higher)”. Also, under setting [7], the “Aβ40 Change Insoluble” value is recorded as “+++ (increases of 70% or higher)”, the “Aβ40 Change Soluble” value is on record as “++ (increases of 40 to 69%)”, the “Aβ42 Change Insoluble” value is listed as “+ (increases in the levels of Aβ (relative to untreated control) of 20 to 39%)” and the “Aβ42 Change Soluble” value is on record as “+++ (increases of 70% or higher)”. In addition, the “Aβ42 Change” value (Day 28, methylcellulose group, daily oral) is “+ (increases in the levels of Aβ (relative to untreated control) of 20 to 39%)”.

With `CCC(CC)NCCCS(=O)(=O)O` [DD], the “Aβ40 Change Insoluble” value was “− (Decreases in the levels of Aβ of 5 to 19%)” under setting [1] and “− (Decreases in the levels of Aβ of 5 to 19%)” under setting [2].

On to `COc1ccc([C@H](C)NCCCS(=O)(=O)O)cc1` [DZ], for which the “Aβ42 Change Insoluble” value under setting [1] is “−− (decreases of 20 to 38%)”. Besides, under setting [2], the “Aβ40 Change Insoluble” value is “−− (decreases of 20 to 38%)”, the “Aβ40 Change Soluble” value was “− (Decreases in the levels of Aβ of 5 to 19%)”, the “Aβ42 Change Insoluble” value is given as “−− (decreases of 20 to 38%)” and the “Aβ42 Change Soluble” value is recorded as “−− (decreases of 20 to 38%)”.

With `CC1CC(NCCCS(=O)(=O)O)CC(C)(C)C1` (centres unmarked) [ED], under setting [1], the “Aβ40 Change Insoluble” value was “+ (increases in the levels of Aβ (relative to untreated control) of 20 to 39%)” and the “Aβ40 Change Soluble” value is listed as “− (Decreases in the levels of Aβ of 5 to 19%)”. Under setting [2], the “Aβ40 Change Insoluble” value is reported as “−− (decreases of 20 to 38%)”, the “Aβ40 Change Soluble” value is listed as “− (Decreases in the levels of Aβ of 5 to 19%)”, the “Aβ42 Change Insoluble” value is “− (Decreases in the levels of Aβ of 5 to 19%)” and the “Aβ42 Change Soluble” value is “− (Decreases in the levels of Aβ of 5 to 19%)”.

Consider `O=S(=O)(O)CCCNCC(O)c1ccccc1` (centres unmarked) [DY], for which, under setting [1], the “Aβ40 Change Insoluble” value is “−− (decreases of 20 to 38%)” and the “Aβ42 Change Insoluble” value is listed as “−− (decreases of 20 to 38%)”. Besides, under setting [2], the “Aβ40 Change Insoluble” value is “−−− (decreases of 39% or more)”, the “Aβ42 Change Insoluble” value is recorded as “−− (decreases of 20 to 38%)” and the “Aβ42 Change Soluble” value is listed as “− (Decreases in the levels of Aβ of 5 to 19%)”.
